Data published in patent publication US11877574B2, “Herbicidal oil dispersion and method” (Arysta LifeScience Inc., priority 2018, dated 2024).

Legend:
[1] = Active ingredient assay and recovery on storage (Table 2); format: physicochemical
[2] = Active ingredient assay on storage, SCB239-12 (Table 3); format: physicochemical

SMILES: CCCCCCCC(=O)Oc1c(Br)cc(C#N)cc1Br [Bromoxynil, Bromoxynil Octanoate]
- Assay (% w/w) ([1]; 1 month storage, 0° C.): 31.04 % w/w
- Assay (% w/w) ([1]; 1 month storage, 40° C.): 31.46 % w/w
- Assay (% w/w) ([1]; 1 month storage, T/C): 31.27 % w/w
- Assay (% w/w) ([1]; 1 month storage, −10° C.): 31.44 % w/w
- Assay (% w/w) ([1]; 2 month storage, 0° C.): 31.30 % w/w
- Assay (% w/w) ([1]; 2 month storage, 40° C.): 30.78 % w/w
- Assay (% w/w) ([1]; 2 month storage, T/C): 30.99 % w/w
- Assay (% w/w) ([1]; 2 month storage, −10° C.): 31.34 % w/w
- Assay (% w/w) ([1]; 2 wks, 54° C.): 31.02 % w/w
- Assay (% w/w) ([1]; 3 month storage, 0° C.): 32.81 % w/w
- Assay (% w/w) ([1]; 3 month storage, 25° C.): 32.57 % w/w
- Assay (% w/w) ([1]; 3 month storage, 40° C.): 32.17 % w/w
- Assay (% w/w) ([1]; 3 month storage, T/C): 32.54 % w/w
- Assay (% w/w) ([1]; 3 month storage, −10° C.): 33.06 % w/w
- Assay (% w/w) ([1]; 6 month storage, 25° C.): 31.38 % w/w
- Assay (% w/w) ([1]; 9 month storage, 25° C.): 32.11 % w/w
- Assay (% w/w) ([1]; 12 month storage, 25° C.): 31.19 % w/w
- Assay (% w/w) ([1]; F/T Sample): 31.42 % w/w
- Assay (% w/w) ([1]; initial): 31.32 % w/w
- Assay (% w/w) ([2]; 1 month storage, 0° C.): 31.08 % w/w
- Recovery of active ingredient (% of initial assay) ([2]; 1 month storage, 0° C.): 99.56 % w/w
- Assay (% w/w) ([2]; 1 month storage, 40° C.): 30.65 % w/w
- Recovery of active ingredient (% of initial assay) ([2]; 1 month storage, 40° C.): 98.17 % w/w
- Assay (% w/w) ([2]; 1 month storage, T/C): 30.89 % w/w
- Recovery of active ingredient (% of initial assay) ([2]; 1 month storage, T/C): 98.95 % w/w
- Assay (% w/w) ([2]; 2 month storage, 0° C.): 30.30 % w/w
- Recovery of active ingredient (% of initial assay) ([2]; 2 month storage, 0° C.): 97.06 % w/w
- Assay (% w/w) ([2]; 2 month storage, 40° C.): 29.43 % w/w
- Recovery of active ingredient (% of initial assay) ([2]; 2 month storage, 40° C.): 94.28 % w/w
- Assay (% w/w) ([2]; 2 month storage, T/C): 29.88 % w/w
- Recovery of active ingredient (% of initial assay) ([2]; 2 month storage, T/C): 95.73 % w/w
- Assay (% w/w) ([2]; 2 wks, 54° C.): 30.55 % w/w
- Recovery of active ingredient (% of initial assay) ([2]; 2 wks, 54° C.): 97.86 % w/w
- Assay (% w/w) ([2]; 3 month storage, 0° C.): 30.06 % w/w
- Recovery of active ingredient (% of initial assay) ([2]; 3 month storage, 0° C.): 96.31 % w/w
- Assay (% w/w) ([2]; 3 month storage, 25° C.): 30.03 % w/w
- Recovery of active ingredient (% of initial assay) ([2]; 3 month storage, 25° C.): 96.21 % w/w
- Assay (% w/w) ([2]; 3 month storage, 40° C.): 29.37 % w/w
- Recovery of active ingredient (% of initial assay) ([2]; 3 month storage, 40° C.): 94.07 % w/w
- Assay (% w/w) ([2]; 3 month storage, −10° C.): 30.49 % w/w
- Recovery of active ingredient (% of initial assay) ([2]; 3 month storage, −10° C.): 97.68 % w/w
- Assay (% w/w) ([2]; F/T sample): 31.13 % w/w
- Recovery of active ingredient (% of initial assay) ([2]; F/T sample): 99.73 % w/w
- Assay (% w/w) ([2]; Initial): 31.22 % w/w

SMILES: COc1nn(C(=O)[N-]S(=O)(=O)c2ccccc2OC(F)(F)F)c(=O)n1C.[Na+] [Flucarbazone, Flucarbazone Sodium]
- Assay (% w/w) ([1]; 1 month storage, 0° C.): 1.89 % w/w
- Assay (% w/w) ([1]; 1 month storage, 40° C.): 1.90 % w/w
- Assay (% w/w) ([1]; 1 month storage, T/C): 1.90 % w/w
- Assay (% w/w) ([1]; 1 month storage, −10° C.): 1.90 % w/w
- Assay (% w/w) ([1]; 2 month storage, 0° C.): 1.93 % w/w
- Assay (% w/w) ([1]; 2 month storage, 40° C.): 1.91 % w/w
- Assay (% w/w) ([1]; 2 month storage, T/C): 1.93 % w/w
- Assay (% w/w) ([1]; 2 month storage, −10° C.): 1.93 % w/w
- Assay (% w/w) ([1]; 2 wks, 54° C.): 1.90 % w/w
- Assay (% w/w) ([1]; 3 month storage, 0° C.): 1.98 % w/w
- Assay (% w/w) ([1]; 3 month storage, 25° C.): 1.99 % w/w
- Assay (% w/w) ([1]; 3 month storage, 40° C.): 1.94 % w/w
- Assay (% w/w) ([1]; 3 month storage, T/C): 1.98 % w/w
- Assay (% w/w) ([1]; 3 month storage, −10° C.): 1.99 % w/w
- Assay (% w/w) ([1]; 6 month storage, 25° C.): 1.92 % w/w
- Assay (% w/w) ([1]; 9 month storage, 25° C.): 1.92 % w/w
- Assay (% w/w) ([1]; 12 month storage, 25° C.): 1.92 % w/w
- Assay (% w/w) ([1]; F/T Sample): 1.92 % w/w
- Assay (% w/w) ([1]; initial): 1.91 % w/w
- Assay (% w/w) ([2]; 1 month storage, 0° C.): 1.81 % w/w
- Recovery of active ingredient (% of initial assay) ([2]; 1 month storage, 0° C.): 99.67 % w/w
- Assay (% w/w) ([2]; 1 month storage, 40° C.): 1.85 % w/w
- Recovery of active ingredient (% of initial assay) ([2]; 1 month storage, 40° C.): 101.98 % w/w
- Assay (% w/w) ([2]; 1 month storage, T/C): 1.83 % w/w
- Recovery of active ingredient (% of initial assay) ([2]; 1 month storage, T/C): 101.13 % w/w
- Assay (% w/w) ([2]; 2 month storage, 0° C.): ′1.81 % w/w
- Recovery of active ingredient (% of initial assay) ([2]; 2 month storage, 0° C.): 99.76 % w/w
- Assay (% w/w) ([2]; 2 month storage, 40° C.): 1.80 % w/w
- Recovery of active ingredient (% of initial assay) ([2]; 2 month storage, 40° C.): 99.54 % w/w
- Assay (% w/w) ([2]; 2 month storage, T/C): 1.82 % w/w
- Recovery of active ingredient (% of initial assay) ([2]; 2 month storage, T/C): 100.35 % w/w
- Assay (% w/w) ([2]; 2 wks, 54° C.): 1.68 % w/w
- Recovery of active ingredient (% of initial assay) ([2]; 2 wks, 54° C.): 92.84 % w/w
- Assay (% w/w) ([2]; 3 month storage, 0° C.): 1.80 % w/w
- Recovery of active ingredient (% of initial assay) ([2]; 3 month storage, 0° C.): 99.13 % w/w
- Assay (% w/w) ([2]; 3 month storage, 25° C.): 1.79 % w/w
- Recovery of active ingredient (% of initial assay) ([2]; 3 month storage, 25° C.): 98.51 % w/w
- Assay (% w/w) ([2]; 3 month storage, 40° C.): 1.72 % w/w
- Recovery of active ingredient (% of initial assay) ([2]; 3 month storage, 40° C.): 95.13 % w/w
- Assay (% w/w) ([2]; 3 month storage, −10° C.): 1.78 % w/w
- Recovery of active ingredient (% of initial assay) ([2]; 3 month storage, −10° C.): 98.44 % w/w
- Assay (% w/w) ([2]; F/T sample): 1.80 % w/w
- Recovery of active ingredient (% of initial assay) ([2]; F/T sample): 99.26 % w/w
- Assay (% w/w) ([2]; Initial): 1.81 % w/w
